We go through 4 compounds from patent EP0908457B1, “3-(1,2-benzisothiazol- and isoxazol-5-Y1)-2,4(1H,3H)-pyrimidinedione or thione and 3-(1,2-benzisothiazol- and isoxazol-5-y1)-4(3H)-pyrimidinone or thione herbicidal agents” (BASF AKTIENGESELLSCHAFT, priority 1997, dated 1999).

Data set [1] concerns Cyperus serotinus, Rottb. The data set can be described thus: Preemergence weed control under flooded paddy conditions, CYPSE (Flatsedge). The data set is classed as in vivo.
The subject of data set [2] is Echinochloa oryzoides (Ard.) Fritsch. Put plainly: Preemergence weed control under flooded paddy conditions, ECHORC (Watergrass (Calif.)). The data set is classed as in vivo. To be noted: flooded paddy.
In data set [3] the test system is Oryza sativa, (L.) Tebonnet. The data set can be described thus: Rice tolerance to post-transplant applications under flooded paddy conditions (Example 187), ORYSAT (Rice, Tebonnet).
Another data set relates to Sagittaria pygmaea, L. Put plainly: Preemergence weed control under flooded paddy conditions, SAGPY (Arrowhead (Pygmaea)). The following applies: flooded paddy. The data set is classed as in vivo.
The subject of the next data set is Cyperus iria. The data set can be described thus: Preemergence weed control under flooded paddy conditions, CYPIR (Rice Flatsedge). The data set is classed as in vivo. To be noted: flooded paddy.
Data set [4] relates to Monochoria vaginalis, Presl. The data set can be described thus: Preemergence weed control under flooded paddy conditions, MOOVA (Monochoria). The data set is classed as in vivo. To be noted: flooded paddy.
[5] abbreviates: Rate 0.0320 kg/ha, preemergence, rated 3-4 weeks after treatment.
Setting [6] is: Rate 0.0620 kg/ha, preemergence, rated 3-4 weeks after treatment.
Where [7] appears, read: Rate 0.1250 kg/ha, preemergence, rated 3-4 weeks after treatment.
The mark [8] stands for this setting: Rate 0.2500 kg/ha, preemergence, rated 3-4 weeks after treatment.
Setting [9] is: Rate 0.0320 kg/ha, rated 3-4 weeks after treatment.
Where [10] appears, read: Rate 0.0620 kg/ha, rated 3-4 weeks after treatment.
Where [11] appears, read: Rate 0.1250 kg/ha, rated 3-4 weeks after treatment.
Where [12] appears, read: Rate 0.2500 kg/ha, rated 3-4 weeks after treatment.
Setting [13] is: Rate 0.0320 kg/ha, preemergence weeds, rated three to four weeks after treatment.
Where [14] appears, read: Rate 0.0620 kg/ha, preemergence weeds, rated three to four weeks after treatment.
The mark [15] stands for this setting: Rate 0.1250 kg/ha, preemergence weeds, rated three to four weeks after treatment.
[16] abbreviates: Rate 0.2500 kg/ha, preemergence weeds, rated three to four weeks after treatment.
The mark [17] stands for this setting: Rate 0.0320 kg/ha, rated three to four weeks after treatment.
[18] abbreviates: Rate 0.0620 kg/ha, rated three to four weeks after treatment.
[19] abbreviates: Rate 0.1250 kg/ha, rated three to four weeks after treatment.
Setting [20] is: Rate 0.2500 kg/ha, rated three to four weeks after treatment.
Where [21] appears, read: Rate 0.0320 kg/ha, preemergence, rated three to four weeks after treatment.
The mark [22] stands for this setting: Rate 0.0620 kg/ha, preemergence, rated three to four weeks after treatment.
The mark [23] stands for this setting: Rate 0.1250 kg/ha, preemergence, rated three to four weeks after treatment.
Setting [24] is: Rate 0.2500 kg/ha, preemergence, rated three to four weeks after treatment.
Note: meaning of each grade not given here.

For `CC=CCOC(=O)C(C)(C)Oc1ccc(C)cc1-c1nsc2ccc(-n3c(=O)cc(C(F)(F)F)n(C)c3=O)cc12` [Example 529, Propionic acid, 2-{{2-{5-[3,6-dihydro-3-methyl-2,6-dioxo-4-(trifluoromethyl)-1(2H)-pyrimidinyl]-1,2-benzisothiazol-3-yl}-p-tolyl}oxy}-2-methyl-, 2-butenyl ester], the “herbicidal effect rating, CYPSE” value in data set [1] (setting [5]), in data set [1] (setting [6]), in data set [1] (setting [7]) and in data set [1] (setting [8]) was 0.0 throughout. The “herbicidal effect rating, ECHORC” value amounted to 7.0 in data set [2] (setting [5]), 9.0 in data set [2] (setting [6]), 9.0 in data set [2] (setting [7]) and 9.0 in data set [2] (setting [8]). The “herbicidal effect rating ORYSAT” value in data set [3] (setting [9]) is on record as 0.0; in data set [3] (setting [10]), 0.0; in data set [3] (setting [11]), 3.0; in data set [3] (setting [12]), 9.0. The “herbicidal effect rating, SAGPY” value in the data set with Sagittaria pygmaea, L. (setting [5]) is 9.0; in the data set on Sagittaria pygmaea, L. (setting [6]), 9.0; with Sagittaria pygmaea, L. (setting [7]) it was 9.0; in the data set on Sagittaria pygmaea, L. (setting [8]), 9.0. Moreover, the “herbicidal effect rating, CYPIR” value is recorded as 3.0 in the data set with Cyperus iria (setting [5]), 3.0 with Cyperus iria (setting [6]), 3.0 in the data set with Cyperus iria (setting [7]) and 0.0 in the data set with Cyperus iria (setting [8]). In addition, the “herbicidal effect rating, MOOVA” value was 3.0 in data set [4] (setting [5]), 3.0 in data set [4] (setting [6]), 3.0 in data set [4] (setting [7]) and 0.0 in data set [4] (setting [8]).

For the compound `C[C@@H](Br)[C@H](Br)c1nsc2ccc(-n3c(=O)cc(C(F)(F)F)n(C)c3=O)cc12` [Example 303, 2,4(1H,3H)-Pyrimidinedione, 3-[3-(1,2-dibromopropyl)-1,2-benzisothiazol-5-yl]-1-methyl-6-(trifluoromethyl)-, (1R,2R)-], the “herbicidal effect rating, CYPSE” value in data set [1] (setting [13]) stood at 0.0; in data set [1] (setting [14]), 4.0; in data set [1] (setting [15]) it was 5.0; in data set [1] (setting [16]), 6.0. Further, the “herbicidal effect rating, ECHORC” value in data set [2] (setting [13]) is 2.5; in data set [2] (setting [14]) it was 7.5; in data set [2] (setting [15]), 9.0; in data set [2] (setting [16]) it was 9.0. Besides, the “herbicidal effect rating ORYSAT” value is given as 2.0 in data set [3] (setting [17]), 4.5 in data set [3] (setting [18]), 5.0 in data set [3] (setting [19]) and 7.5 in data set [3] (setting [20]). Also, the “herbicidal effect rating, SAGPY” value with Sagittaria pygmaea, L. (setting [13]) is recorded as 2.0; in the data set with Sagittaria pygmaea, L. (setting [14]), 2.0; in the data set with Sagittaria pygmaea, L. (setting [15]) it was 8.5; in the data set with Sagittaria pygmaea, L. (setting [16]), 9.0. Further, the “herbicidal effect rating, CYPIR” value with Cyperus iria (setting [13]) was 8.0; in the data set on Cyperus iria (setting [14]) it was 8.0; with Cyperus iria (setting [15]), 8.5; in the data set on Cyperus iria (setting [16]) it was 8.5. In addition, the “herbicidal effect rating, MOOVA” value is recorded as 7.0 in data set [4] (setting [13]), 9.0 in data set [4] (setting [14]), 9.0 in data set [4] (setting [15]) and 9.0 in data set [4] (setting [16]).

`CCCCCCC#CCCOC(=O)COc1ccc(C)cc1-c1nsc2ccc(-n3c(=O)cc(C(F)(F)F)n(C)c3=O)cc12` [Example 522, Acetic acid, {{2-{5-[3,6-dihydro-3-methyl-2,6-dioxo-4-(trifluoromethyl)-1(2H)-pyrimidinyl]-1,2-benzisothiazol-3-yl}-p-tolyl}oxy}-, 3-decynyl ester]: the “herbicidal effect rating, CYPSE” value in data set [1] (setting [5]), in data set [1] (setting [6]), in data set [1] (setting [7]) and in data set [1] (setting [8]) was 0.0 each time. The “herbicidal effect rating, ECHORC” value is given as 5.5 in data set [2] (setting [5]), 6.5 in data set [2] (setting [6]), 8.0 in data set [2] (setting [7]) and 9.0 in data set [2] (setting [8]). The “herbicidal effect rating ORYSAT” value in data set [3] (setting [9]) amounted to 2.5; in data set [3] (setting [10]) it was 4.0; in data set [3] (setting [11]) it was 4.0; in data set [3] (setting [12]), 4.5. Moreover, the “herbicidal effect rating, SAGPY” value was determined as 0.0 in the data set on Sagittaria pygmaea, L. (setting [5]); 0.0 in the data set with Sagittaria pygmaea, L. (setting [6]); 0.0 in the data set on Sagittaria pygmaea, L. (setting [7]); 0.0 in the data set on Sagittaria pygmaea, L. (setting [8]). Further, the “herbicidal effect rating, CYPIR” value in the data set on Cyperus iria (setting [5]) is given as 0.0; in the data set on Cyperus iria (setting [6]), 0.0; with Cyperus iria (setting [7]) it was 0.0; with Cyperus iria (setting [8]), 2.0. Also, the “herbicidal effect rating, MOOVA” value in data set [4] (setting [5]), in data set [4] (setting [6]), in data set [4] (setting [7]) and in data set [4] (setting [8]) was 9.0 each time.

Turning to `CCOCN(C(=O)c1nsc2ccc(-n3c(=O)cc(C(F)(F)F)n(C)c3=O)cc12)S(C)(=O)=O` [Example 370, 1,2-Benzisothiazole-3-carboxamide, 5-[3,6-dihydro-3-methyl-2,6-dioxo-4-(trifluoromethyl)-1(2H)-pyrimidinyl]-N-(ethoxymethyl)-N-(methylsulfonyl)-], the “herbicidal effect rating, CYPSE” value in data set [1] (setting [21]) was 0.0; in data set [1] (setting [22]), 4.0; in data set [1] (setting [23]) it was 7.0; in data set [1] (setting [24]), 9.0. In addition, the “herbicidal effect rating, ECHORC” value in data set [2] (setting [21]) is recorded as 3.0; in data set [2] (setting [22]) it was 4.0; in data set [2] (setting [23]), 6.0; in data set [2] (setting [24]) it was 7.0. Further, the “herbicidal effect rating ORYSAT” value is 3.0 in data set [3] (setting [17]), 4.0 in data set [3] (setting [18]), 4.0 in data set [3] (setting [19]) and 5.0 in data set [3] (setting [20]). Besides, the “herbicidal effect rating, SAGPY” value was 0.0 in the data set with Sagittaria pygmaea, L. (setting [21]); 3.0 with Sagittaria pygmaea, L. (setting [22]); 7.0 in the data set with Sagittaria pygmaea, L. (setting [23]); 9.0 in the data set on Sagittaria pygmaea, L. (setting [24]). The “herbicidal effect rating, CYPIR” value in the data set on Cyperus iria (setting [21]) is given as 4.0; in the data set on Cyperus iria (setting [22]) it was 7.0; with Cyperus iria (setting [23]), 9.0; in the data set with Cyperus iria (setting [24]), 9.0. In addition, the “herbicidal effect rating, MOOVA” value in data set [4] (setting [21]) came out at 7.0; in data set [4] (setting [22]) it was 9.0; in data set [4] (setting [23]), 9.0; in data set [4] (setting [24]) it was 9.0.
